Laboratory results from patent publication EP4813999A1, “NOVEL PEPTIDE DERIVATIVE AND PHARMACEUTICAL COMPOSITION FOR PREVENTING OR TREATING MACULAR DEGENERATION COMPRISING SAME” (Supadelixir Inc., priority 2023, dated 2026).

Columns and labels:
VE-cadherin and ZO-1 = assay: Expression levels and patterns of junctional proteins (immunofluorescence); assay type: cell-based, human; conditions: HUVECs; VEGF 50 ng/mL, 90 minutes; test substance 10 and 100 nM
Source text: Whether the test substance (SE101B2L) could regulate changes in permeability caused by VEGF-induced changes in membrane protein stability of vascular endothelial cells was confirmed. Expression levels and patterns of VE-cadherin and ZO-1, which are junctional proteins associated with vascular stability and permeability and connect cells to one another, were confirmed. One circular coverslip having a diameter of 12 mm was placed in each well of a 24-well plate, and gelatin was applied using a 2% gelatin solution to facilitate cell attachment. Into the prepared wells, 1 × 10^5 HUVECs were seeded per well. The cells were cultured in an incubator with 5% CO2 at 37°C for 4 days, with the growth medium replaced every other day. After confirming that the cells had become completely confluent, the cells were incubated for 1 hour using serum-free CEFOgro-HUVEC medium. At this time, the test substance was added to the corresponding wells to final concentrations of 10 and 100 nM. Upon completion of the incubation, VEGF at a final concentration of 50 ng/mL was added, followed by incubation for an additional 90 minutes. The incubated samples were fixed at room temperature for 15 minutes using a 10% formalin solution. […] The corresponding samples were photographed under a fluorescence microscope.

[1] = tested on: CNV-induced male chinchilla rabbits; assay: Macular degeneration animal model: laser-induced CNV, retinal fluorescein fundus imaging; assay type: in vivo; conditions: instillation 50 µL twice daily, Day 7 and Day 14, versus induced control group (G1)
Source text: As a macular degeneration animal model, CNV-induced male chinchilla rabbits were used. The efficacy test using the CNV animal model was commissioned to HLB Biostep Co., Ltd. (formerly Notus Co., Ltd.). In order to induce CNV formation, a mydriatic agent (Mydriacyl 1% eye drops) was instilled into the right eye of each chinchilla rabbit, followed by anesthesia. Thereafter, the right eye was irradiated using a laser (LIGHTLas 532, LIGHTMED, USA) under conditions of a wavelength of 532 nm and a power of 150 mW for 0.1 seconds, thereby creating six wounds in the 6 o'clock direction centered on the optic nerve.
An induced control group (G1) was repeatedly administered 0.9% aqueous sodium chloride solution (vehicle) by instillation twice daily. […]
After initiation of administration to each group, a mydriatic agent (Mydriacyl 1% eye drops) was instilled into the right eye of each animal on Day 0, Day 7, and Day 14, followed by anesthesia. […] Confirmation of retinal CNV and evaluation of pharmacological efficacy were performed using retinal fluorescein fundus images, and image analysis was performed using the ImageJ software (NIH, Bethesda, MD) to analyze fluorescence intensity at irradiated sites.
Assuming normality for the results of the present test, significance between test groups was analyzed using parametric one-way analysis of variance (one-way ANOVA). […]

ARPE19 cells = assay: Hydrogen peroxide-induced apoptosis (phosphatidylserine / CytoCalcein Violet 450 staining); assay type: cell-based, Human; conditions: 200 µM hydrogen peroxide, test substance 0.01, 0.1, 1 µM, 24 hours
Procedure: Human retinal pigment epithelial cells (ARPE19) were cultured in a humidified incubator with 5% CO2 at 37°C. DMEM/F12 (Gibco) containing 10% fetal bovine serum and penicillin (100 U/ml)/streptomycin ([…]) was used as medium. The cells were cultured with the medium replaced with fresh medium every other day and were passaged using 0.25% trypsin containing 0.02% ethylenediaminetetraacetic acid (EDTA).
After apoptosis was induced in ARPE19 cells using hydrogen peroxide (H2O2), the test substance (SE101B2L) was added at varying concentrations to evaluate inhibitory effects against apoptosis. Inhibitory effects against apoptosis were measured using phosphatidylserine (PS), which is exposed on the surface of apoptotic cells.
ARPE19 cells were seeded into a 24-well microplate containing coverslips at 1 × 10^6 cells/well and cultured in an incubator with 5% CO2 at 37°C for 24 hours. When approximately 80% confluency was reached, the test substance was added to each treatment group at concentrations of 0, 0.01, 0.1, and 1 µM, together with 200 µM hydrogen peroxide, followed by incubation for 24 hours. […] Emission signals detected from each cell were measured using a digital fluorescence microscope (CELENA S digital imaging system, Logos Biosystems, Korea) to quantify apoptotic cells and live cells.

decylbenzoyl-Cys-Phe-Lys-amide [SE101B2L]
expression levels and patterns of junctional proteins between cells (VE-cadherin, ZO-1) (VE-cadherin and ZO-1): appear similarly to those of the untreated group in a concentration-dependent manner
retinal fluorescence intensity ([1]; G3: 3750 ppm): statistically significantly lower than those in the induced control group (G1) (p < 0.001)
retinal fluorescence intensity ([1]; G4: 187.5 ppm): statistically significantly lower than those in the induced control group (G1) (p < 0.001)
apoptotic cells (green) (ARPE19 cells): apoptotic cells (green) decrease
live cells (blue) (ARPE19 cells): live cells (blue) increase in a concentration-dependent manner
